Data as given in publication PMC8253137, “Microbiota-derived butyrate is an endogenous HIF prolyl hydroxylase inhibitor” (Gut Microbes, 2021).
“Also recorded” adds a separate entry of the source.

Assays:
PHD2_181-402 [1] = molecular target: T1, PHD2_181-402 (Homo sapiens, UniProt Q9GZT9); assay: Microscale thermophoresis (MST) binding
T84 cells = assay: HIF stabilization in T84 cells (HIF-1α target mRNA, HIF-1α western blot); type: cell-based; conditions: 4 h
Method: T84 cells were cultured in 95% air with 5% CO2 at 37°C in standard media made of DMEM:F-12 supplemented with 10% calf serum, 1% penicillin/streptomycin, and 1% GlutaMAX™ (ThermoFisher Scientific) on 9.6 cm^2 6-well plates (ThermoFisher Scientific). Real-time oxygen sensing was done using the SensorDish Reader from Applikon Biotechnology as described previously with T84 cells plated on 0.33 cm^2 transwell inserts (Corning, 0.4 μm).[12] All MCPA treatments included a 2 h pretreatment with MCPA before treatment with butyrate.
TRIzol® reagent (ThermoFisher Scientific) was used to isolate total RNA from T84 cells. Mouse colon tissue samples were harvested into RNAlater™ (Invitrogen) and stored at 4°C for 48 h. Total RNA was isolated from the tissues using RNeasy Plus Mini Kit (Qiagen). cDNA was prepared using the iScript cDNA Synthesis Kit (Bio-Rad). Quantitative PCR analysis was performed using the Power SYBR™ Green master mix (Applied Biosystems) in a thermocycler. Fold change in expression of target mRNA relative to β-actin (ACTB) mRNA was calculated using the delta-delta Ct method. Primer sequences used are as follows: hBNIP3 – forward, 5′- […] −3′, reverse, 5′- […] −3′; hBNIP3L – forward, 5′- […] −3′, reverse, 5′- […] −3′; hGLUT1 – forward, 5′- […] −3′, reverse, 5′- […] −3′; hACTB – forward, 5′- […]-3′, reverse, 5′- […]-3′; mBnip3 – forward, 5′- […] −3′, reverse, 5′- […] −3′; mBnip3l – forward, 5′- […] −3′, reverse, 5′- […] −3′; mGlut1 – forward, 5′- […] −3′, reverse, 5′- […] −3′; and mActb – forward, 5′- […] −3′, reverse, 5′- […] −3′.
T84 cells were rinsed with PBS and collected and lysed in 200 µL of radioimmunoprecipitation assay (RIPA, 50 mM Tris-HCl pH 8.0, 1 mM EDTA, 1% Triton X-100, […], 0.5% sodium deoxycholate, 150 mM NaCl) buffer with protease inhibitors on ice. Mouse colon samples were harvested into 350 µL of RIPA buffer and flash frozen in liquid nitrogen. Samples were homogenized by sonication, and insoluble materials removed by centrifugation at 10,000 g for 5 min at 4°C. Protein quantity of the supernatant was determined using the Bradford reagent. […]

PHD2_181-402 [2] = molecular target: T1, PHD2_181-402; assay: PHD2_181-402 inhibition assay (bioluminescent succinate detection, Succinate-Glo); type: biochemical
Method: PHD2_181-402 activity and inhibition assays were performed with the Succinate-Glo JmjC Demethylase/Hydroxylase Assay Kit (Promega) according to manufacturer protocol and as detailed in Alves et al. […] The enzymatic reaction was incubated at room temperature for 10 minutes, after which succinate formation was detected according to manufacturer protocol. […] Then, 20 µL of Succinate Detection Reagent II was added to the reactions and incubated for 10 min at room temperature before the luciferase-generated luminescence was recorded on a plate-reading luminometer. Succinate standard curves were used to determine the sensitivity and linear range of the bioluminescent succinate detection. […] Succinate standards were serially diluted two-fold from 15 µM to 58.6 nM and a 0 succinate blank. 10 µL of succinate standards were used for detection as described above. […] Reactions were incubated at room temperature for 10 minutes and succinate detected. […] Measured IC50s were calculated from fitting the percentage activity data to the [Inhibitor] vs. normalized response – variable slope least squares nonlinear regression in GraphPad Prism 9. True IC50s were calculated from measured IC50s with the equation derived by Wu et al.[26] describing the relationship between the measured IC50 of an inhibitor and the percentage of substrate conversion.

PHD2_181-402 [3] = molecular target: T1, PHD2_181-402; assay: WaterLOGSY 1D NMR binding; conditions: for binding to PHD2_181-402 (WaterLOGSY signal): 10 mM ligand, 25 μM PHD2_181-402
Text: Next, we established whether butyrate binds directly to PHD2_181-402 using 1D WaterLOGSY NMR.[28] This method enables sensitive and robust detection of binding (dissociation constants as weak as μM to low mM) based on the magnetization transfer between water molecules, proteins, and ligands of interest in close proximity via dipolar proton–proton cross-relaxation (nuclear Overhauser effect, NOE). […] Binding and non-binding ligands can be distinguished in a WaterLOGSY spectrum via their opposite signs in relation to water for their corresponding peaks.
Following an established protocol, all NMR analyses were performed using PHD2_181-402 and the diamagnetic element (Zn^2+) rather than a paramagnetic element such as Fe^2+ that would result in inhibitive signal reduction or loss due to fast relaxation induced by the unpaired electron.[63]
Water-Ligand Observed via Gradient SpectroscopY (WaterLOGSY): Measurements were carried out on a 600 MHz triple-resonance Bruker cryoprobe spectrometer.[28] Selective water inversion was achieved using an iBURP shaped pulse with 15 ms length and an inversion bandwidth of 0.4 ppm. The mixing time was set to 1 s, and the water was suppressed using double Watergate. 1024 scans were acquired with an interscan delay of 2 s. The sample concentration was 25 µM of PHD2_181-402 mixed with 10 mM of the different ligands in NMR buffer (Tris 50 mM, NaCl 20 mM, ZnCl2 100 μM) at pH 6.5.

HDACs = test system: HDACs; parameters: method as in PMID 18061431, PMID 30052654; conditions: cited from earlier work

T1 sequence (Q9GZT9 181-402): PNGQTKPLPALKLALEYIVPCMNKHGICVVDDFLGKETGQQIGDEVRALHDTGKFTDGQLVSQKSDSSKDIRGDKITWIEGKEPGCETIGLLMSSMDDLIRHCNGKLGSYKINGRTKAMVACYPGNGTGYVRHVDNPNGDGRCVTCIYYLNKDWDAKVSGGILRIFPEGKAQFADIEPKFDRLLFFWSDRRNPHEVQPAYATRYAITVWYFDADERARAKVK

## CCCC(=O)O [Butyrate]
PHD2_181-402 [1]
  Kd: 2 ± 3 mM
PHD2_181-402 [1]; 25 nM PHD2_181-402, with 500 nM 2-OG
  binding to PHD2_181-402 in the presence of 2-OG (MST): no butyrate binding
T84 cells; 10 mM butyrate with 1 mM MCPA
  HIF stabilization in the presence of MCPA: still stabilized HIF
T84 cells; 10 mM butyrate
  HIF-1α protein levels: increased
  HIF-1α target gene mRNA (BNIP3, BNIP3L, GLUT1): induction
PHD2_181-402 [2]; 2-OG at 1, 5, 10, 40 or 100 µM
  change of IC50 with increasing 2-OG: did not change
PHD2_181-402 [2]; calculated from true IC50 with the IC50 to Ki conversion equation of Cer et al., read-out: noncompetitive Ki
  Ki: 5.3 ± 0.5 mM
PHD2_181-402 [2]; from 2-OG titration, WaterLOGSY and MST
  mode of inhibition: noncompetitive
PHD2_181-402 [2]; read-out: True IC50
  IC50: 5.3 ± 0.5 mM
PHD2_181-402 [3]; 10 mM butyrate, 25 μM PHD2_181-402, with 150 μM 2-OG
  binding to the 2-OG and PHD2_181-402 complex (WaterLOGSY): could not bind; also recorded: absence of binding
PHD2_181-402 [3]
  binding to PHD2_181-402 (WaterLOGSY signal): clear positive signal, indicative of binding
PHD2_181-402 [3]; listed as Butyric acid
  binding to PHD2_181-402 (WaterLOGSY signal): indicating binding
HDACs
  HDAC inhibition: most potently inhibits HDACs
